From ChEMBL document CHEMBL1201862, “PubChem BioAssay data set” (2004) come the findings set out here.

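Test compounds were applied to cells in 96-well plates for 48 hours at 5 doses. GI50 marks 50% less growth.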 Calls of active or inactive are those of the source. Cut-off read from the data, not from the text of the source: active = GI50 up to about 1.1 µM and inactive = higher.

Among the test systems are 786-0; BT-549; CCRF-CEM; DU-145; Hs-578T; K562; KM12; MDA-MB-231; MDA-MB-435; MDA-N; MOLT-4; PC-3; SF-268; SK-MEL-28; SNB-19; SNB-75; SW-620; T47D; UACC-257.
Common to all, as to test: NCI tumour cell line growth inhibition, 48 h

On to `COc1ccc2cc(CNCCCCCCCCCCCCNCc3ccc4cc(OC)ccc4c3)ccc2c1`, for which the GI50 with 786-0 was 16.5 µM (inactive); in the assay on BT-549 it was 18.9 µM (inactive); in the assay with CCRF-CEM, 9.46 µM (inactive); in the assay with DU-145, 30 µM (inactive); in the assay on Hs-578T it was 15.9 µM (inactive); with K562 it was 10.4 µM (inactive). Also, the GI50 in the assay on KM12 is 19.2 µM (inactive); with MDA-MB-231 it was 23.5 µM (inactive); with MDA-MB-435 it was 25.6 µM (inactive); with MDA-N, 21.4 µM (inactive); in the assay with MOLT-4, 21.5 µM (inactive); in the assay with PC-3, 28.3 µM (inactive). Besides, the GI50 was 8.04 µM (inactive) in the assay on SF-268; 27.7 µM (inactive) in the assay on SK-MEL-28; 17.5 µM (inactive) in the assay with SNB-19; 13.9 µM (inactive) in the assay on SNB-75; 20.7 µM (inactive) in the assay on SW-620; 15.8 µM (inactive) in the assay with T47D. The GI50 in the assay with UACC-257 was 21 µM (inactive).

Regarding `O=S(=O)(N/C(=N\O)Nc1ccc(Cl)cc1)c1ccccc1`, the GI50 in the assay with 786-0 is 1.87 µM (inactive); in the assay on BT-549, 12.6 µM (inactive); in the assay with CCRF-CEM, 33.9 µM (inactive); in the assay on DU-145, 18.5 µM (inactive); in the assay on Hs-578T, 6.46 µM (inactive); in the assay on K562, 6.64 µM (inactive). The GI50 is 24.2 µM (inactive) in the assay with KM12; 29.5 µM (inactive) in the assay on MDA-MB-231; 9.23 µM (inactive) in the assay on MDA-MB-435; 3.9 µM (inactive) in the assay on MDA-N; 3.23 µM (inactive) with MOLT-4; 13.3 µM (inactive) with PC-3. In addition, the GI50 in the assay on SF-268 was 10.8 µM (inactive); with SK-MEL-28, 10.9 µM (inactive); in the assay on SNB-19 it was 22.8 µM (inactive); in the assay with SNB-75 it was 1.71 µM (inactive); with SW-620, 10 µM (inactive); with T47D it was 2.74 µM (inactive). In addition, the GI50 in the assay on UACC-257 was 10.5 µM (inactive).

With `COc1ccc(-c2c(-c3ccccc3)c(C)nc3nc(SC)nc(SC)c23)cc1OC`, the GI50 with BT-549 is 24.8 µM (inactive); in the assay with CCRF-CEM, 4.26 µM (inactive); in the assay with DU-145 it was 15.5 µM (inactive); with Hs-578T it was 5.05 µM (inactive); with K562, 4.54 µM (inactive); with KM12, 18.1 µM (inactive). Further, the GI50 was 20.9 µM (inactive) in the assay on MDA-MB-231; 8.17 µM (inactive) with MDA-MB-435; 8.99 µM (inactive) with MDA-N; 5.81 µM (inactive) with MOLT-4; 4.29 µM (inactive) in the assay on PC-3; 24 µM (inactive) in the assay with SF-268. In addition, the GI50 with SK-MEL-28 was 22.8 µM (inactive); in the assay on SNB-19, 26.7 µM (inactive); in the assay on SNB-75, 16.1 µM (inactive); in the assay with SW-620, 6.32 µM (inactive); in the assay on T47D, 13 µM (inactive); with UACC-257, 21.5 µM (inactive).

Take `NC(=S)NS(=O)(=O)c1ccc(Cl)cc1Cl`: the GI50 in the assay with 786-0, in the assay on BT-549, in the assay on CCRF-CEM, with DU-145, in the assay with Hs-578T and in the assay with K562 was > 100 µM (inactive) throughout. Moreover, the GI50 in the assay with KM12, in the assay with MDA-MB-231, with MDA-MB-435, in the assay with MDA-N, in the assay on MOLT-4 and in the assay on PC-3 was > 100 µM (inactive) in each case. In addition, the GI50 in the assay with SF-268, in the assay on SK-MEL-28, in the assay with SNB-19, in the assay on SNB-75, in the assay on SW-620 and with T47D was > 100 µM (inactive) each time. Further, the GI50 in the assay on UACC-257 is > 100 µM (inactive).

As to `COc1cc2c3c(c4ccc(O)cc4c2cc1OC)[C@@H](O)[C@@H]1CCCN1C3`, the GI50 in the assay on 786-0 is < 0.001 µM (active); in the assay with BT-549, 0.00168 µM (active); in the assay on CCRF-CEM, < 0.001 µM (active); in the assay with DU-145 it was < 0.001 µM (active); with Hs-578T, < 0.001 µM (active); in the assay on K562, 0.00203 µM (active). The GI50 in the assay on KM12 was < 0.001 µM (active); in the assay on MDA-MB-231, < 0.001 µM (active); with MDA-MB-435, < 0.001 µM (active); in the assay with MDA-N, < 0.001 µM (active); in the assay on MOLT-4, < 0.001 µM (active); in the assay with PC-3 it was 0.0019 µM (active). Also, the GI50 with SF-268, in the assay on SK-MEL-28, in the assay on SNB-19, with SNB-75, with SW-620 and in the assay on T47D was < 0.001 µM (active) in each case. Moreover, the GI50 with UACC-257 was 0.00121 µM (active).

Regarding `C[C@H]1C(=O)O[C@@H]2CCN3CC=C(COC(=O)[C@](C)(O)[C@@]1(C)O)[C@H]23`, the GI50 in the assay with 786-0, with BT-549, in the assay on CCRF-CEM, in the assay on DU-145, with Hs-578T and in the assay with K562 was > 100 µM (inactive) in each case. The GI50 in the assay with KM12, with MDA-MB-231, in the assay with MDA-MB-435, with MDA-N, in the assay with MOLT-4 and in the assay with PC-3 was > 100 µM (inactive) throughout. Also, the GI50 in the assay on SF-268, with SK-MEL-28, with SNB-19, in the assay with SNB-75, with SW-620 and with T47D was > 100 µM (inactive) each time. Further, the GI50 in the assay with UACC-257 is > 100 µM (inactive).

For the compound `CN1C(=O)C2C=C3CCCCC3=CC2N(C)C1=O` (centres undefined), the GI50 in the assay on BT-549, with CCRF-CEM, in the assay on DU-145, in the assay with Hs-578T, with K562 and in the assay with KM12 was > 100 µM (inactive) throughout. Besides, the GI50 in the assay on MDA-MB-231, with MDA-MB-435, with MDA-N, with MOLT-4, in the assay on PC-3 and in the assay on SF-268 was > 100 µM (inactive) throughout. For the same compound, the GI50 with SK-MEL-28, in the assay on SNB-19, in the assay on SNB-75, in the assay on SW-620, in the assay with T47D and in the assay on UACC-257 was > 100 µM (inactive) in each case.

Consider `Nc1nccc2c1ncn2[C@H]1C[C@H](O)[C@@H](CO)O1`, for which the GI50 with BT-549, with CCRF-CEM, with DU-145, in the assay on Hs-578T, with K562 and with KM12 was > 100 µM (inactive) each time. In addition, the GI50 with MDA-MB-231, in the assay on MDA-MB-435, in the assay with MDA-N, in the assay with MOLT-4, in the assay with PC-3 and with SK-MEL-28 was > 100 µM (inactive) each time. Moreover, the GI50 in the assay with SNB-19, in the assay on SNB-75, with SW-620, with T47D and with UACC-257 was > 100 µM (inactive) each time.

For `COC(=O)[C@@H](NC1(c2ccccc2)c2ccccc2-c2ccccc21)[C@@H](C(=O)OC)N(NC(=O)OCc1ccccc1)C(=O)OCc1ccccc1.COC(=O)[C@@H](NC1(c2ccccc2)c2ccccc2-c2ccccc21)[C@H](C(=O)OC)N(NC(=O)OCc1ccccc1)C(=O)OCc1ccccc1`, the GI50 in the assay with 786-0, with BT-549, in the assay on CCRF-CEM, with DU-145, in the assay on Hs-578T and in the assay with K562 was > 100 µM (inactive) each time. The GI50 in the assay on KM12, with MDA-MB-231, with MDA-MB-435, in the assay on MDA-N, with MOLT-4 and in the assay with PC-3 was > 100 µM (inactive) in each case. Further, the GI50 in the assay on SF-268, with SK-MEL-28, in the assay on SNB-19, in the assay on SW-620, in the assay with T47D and with UACC-257 was > 100 µM (inactive) each time.

As to `C/C1=C\[C@@H](C)C[C@@H](C)OC(=O)[C@@H](C)NC(=O)[C@H](Cc2ccc(O)c(Br)c2)N(C)C(=O)CNC(=O)[C@H](C)C1`, the GI50 with 786-0 was < 0.0136 µM (active); in the assay with BT-549 it was 0.0641 µM (active); in the assay on CCRF-CEM, < 0.01 µM (active); with DU-145, 0.363 µM (active); in the assay with Hs-578T, < 0.0136 µM (active); in the assay on K562, < 0.01 µM (active). For the same compound, the GI50 is < 0.01 µM (active) with MDA-MB-231; < 0.01 µM (active) with MDA-MB-435; < 0.0304 µM (active) in the assay on MDA-N; 0.143 µM (active) with MOLT-4; < 0.01 µM (active) with PC-3; < 0.0193 µM (active) in the assay on SF-268. The GI50 is 0.0284 µM (active) in the assay on SK-MEL-28; 0.295 µM (active) in the assay with SNB-19; < 0.01 µM (active) in the assay on SNB-75; < 0.01 µM (active) in the assay on SW-620; 0.126 µM (active) with T47D; < 0.01 µM (active) in the assay with UACC-257.
